Assay results from patent US20260337225A1, “SMALL PEPTIDE AND USE THEREOF IN MUCOSAL REPAIR” (FORREST BIO-PHARM (SHENZHEN) CO., LTD., priority 2022, published 2026).
Where “and” joins values, the source holds several entries; their conditions need not be identical. Identical values can stand only once. No end group written: not given here.

Assays:
[1] = tested on: mouse model of acute gastric ulcer; assay: Mouse model of acute gastric ulcer (anhydrous ethanol); format: in vivo
Protocol: In this embodiment, the function of the small peptides obtained in Embodiment 2 was validated using a mouse model of acute gastric ulcer.
Control group (model group): A mouse mode of acute gastric ulcer was constructed using anhydrous ethanol (0.1 mL/10 g) (referring to the literature of Study on Action of kangfuxin Solution on Experimental Gastric ulcer [J]. Chinese Traditional Patent Medicine, 2001, 23(2): 122-124. DOI: 10.3969/j.issn.1001-1528.). After modeling, the mice were administered with an equal volume of saline.
Blank group: The mice were administered with an equal volume of saline.
Drug treatment groups: A mouse mode of acute gastric ulcer was constructed by treating the mouse with anhydrous ethanol (0.1 mL/10 g). At 2 h, 12 h, and 22 h after modeling, the mice were administered with the rice polypeptide mixture (50 mg/kg) as the mixture group, small peptide P1 (0.5 mg/kg) as the P1 group, and small peptide P2 (0.5 mg/kg) as the P2 group, respectively.
Each group consisted of 8 mice. After 24 h of modeling, the mice were sacrificed, to extract the gastric tissue, and observe changes in bleeding points and ulcer area via gastric tissue dissection.

[2] = tested on: rat model of chronic gastric ulcer; assay: Rat model of chronic gastric ulcer (anhydrous ethanol followed by aspirin); format: in vivo
Protocol: The function of the small peptides obtained in Embodiment 2 was validated in the present embodiment by using a rat model of chronic gastric ulcer.
Control group (model group): A rat model of chronic gastric ulcer model was constructed by intragastric administration of anhydrous ethanol (1 mL/200 g), followed by intragastric administration of 200 mg/kg aspirin 2 h later. The rats were administered with aspirin once daily for 4 days. At day 5, the rats were administered with an equal volume of saline.
Blank group: The rats were administered with an equal volume of saline.
Drug treatment groups: A rat model of chronic gastric ulcer was constructed as above-mentioned. At day 5, the rats were respectively administered with the rice polypeptide mixture (50 mg/kg), small peptide P1 (0.5 mg/kg), or small peptide P2 (0.5 mg/kg) twice daily for 3 days. On day 4, the rats were sacrificed and their gastric necropsy was performed.
Positive control group (omeprazole 2.6 mg/kg): A rat model of chronic gastric ulcer was constructed as above. At day 5, the rats were administered with omeprazole (2.6 mg/kg) twice daily for 3 days. On day 4, The rats were sacrificed and their gastric necropsy was performed.
Each group consisted of 10 rats. After 24 h of modeling, the rats were sacrificed to extract the gastric tissue, for measuring gastric pH, and observing changes in ulcer area via gastric tissue dissection. Liver and kidney tissues were collected for pathological section observation to assess drug safety.

[3] = tested on: normal human hepatic parenchymal L-02 cells; assay: Hepatotoxicity: cytotoxicity in L-02 cells by CCK-8 assay; format: cell-based; settings: 10-200 μg/mL, 24 h, in words
Protocol: Referring to the method from a literature (Determination of emodin in L-02 cells and cell culture media with liquid chromatography-mass spectrometry: Application to a cellular toxicokinetic study. J Pharm Biomed Anal. 2012; 71:71-78), normal human hepatic parenchymal L-02 cells (obtained from Shanghai Cell Bank) were seeded into 96-well plates and treated with small peptides P1 and P2 at concentrations of 0 μg/mL, 10 μg/mL, 20 μg/mL, 50 μg/mL, 100 μg/mL, and 200 μg/mL. After 24-hour stimulation, the cytotoxicity was assessed by Cell Counting Kit-8 (CCK-8) assay.

[4] = tested on: normal human kidney-2 cells (HK-02, HK-2); assay: Nephrotoxicity: cytotoxicity in HK-2 cells by CCK-8 assay; format: cell-based; settings: 10-200 μg/mL, 24 h, in words
Protocol: Referring to the method from a literature (Sinomenine improve diabetic nephropathy by inhibiting fibrosis and regulating the JAK2/STAT3/SOCS1 pathway in streptozotocin-induced diabetic rats. Life Sci. 2021; 265:118855), normal human kidney-2 cells (HK-02, HK-2) (Shanghai Cell Bank) were seeded into 96-well plates and administered with small peptides P1 and P2 at concentrations of 0 μg/mL, 10 μg/mL, 20 μg/mL, 50 μg/mL, 100 μg/mL, and 200 μg/mL. After 24-hour stimulation, the cytotoxicity was assessed by Cell Counting Kit-8 (CCK-8) assay.

[5] = Animal safety observation: rat body weight; format: in vivo; settings: for Rat body weight: 1000 mg/kg daily, intragastric gavage, individual rats, Rat 1-7 = c1-c7, 1000 mg/kg
Protocol: (§1) The rats were administered with the small peptides via intragastric gavage at doses of 500 mg/kg and 1000 mg/kg daily for 14 days. Changes in body weight were recorded. On day 14, the rats were sacrificed to measure alaninetransaminase (ALT) activity and blood urea nitrogen (BUN) levels in rat serum for assessing whether there was hepatotoxicity and nephrotoxicity in rats.

Rat liver = assay: Animal safety observation: rat liver injury (serum alaninetransaminase activity); format: in vivo; settings: 14 days; for Alaninetransaminase Activity, Average / Alaninetransaminase Activity: intragastric gavage, rat serum; for Alaninetransaminase Activity, Average: average of 6 rats, saline average P1 35.83333, P2 30.83333; for Alaninetransaminase Activity: individual rats (Rat 1-6)
Protocol: as §1

Rat kidney = assay: Animal safety observation: rat kidney injury (serum blood urea nitrogen levels); format: in vivo; settings: 14 days; for Blood Urea Nitrogen Levels: intragastric gavage, rat serum, individual rats (Rat 1-6)
Protocol: as §1

mucosal repair = assay: Screening of active monomers for mucosal repair effects; settings: repeated experiments and screening; in words
Description: The inventors observed the active monomers in the polypeptide mixture of Polimi-1 rice variety by mass spectrometry analysis of the polypeptides from various ordinary rice varieties and Polimi-1 rice variety. The small peptides identical to ordinary rice varieties and with high levels in ordinary rice varieties were excluded by a method of exclusion. Finally, the small peptides with higher levels in Polimi-1 rice variety and lower levels in other ordinary rice varieties were selected for further study, as well as those with higher levels in Polimi-1 rice variety and absent in other ordinary rice varieties. Since peptides with molecular weights below 1500 Daltons were extracted from the mixed polypeptide mixture previously obtained, other peptides above this threshold were excluded.

[6] = 500 and 1000 mg/kg daily, rats, in words

GPSGPELRG [Small peptide P2, GPSGPELRG]
Ulcer index ([1]; 0.5 mg/kg at 2 h, 12 h and 22 h after modeling, 8 mice, ratio of ulcer area to gastric mucosal tissue area, Control group 58.3 ± 10.1): 7.1 ± 5.5% | Ulcer inhibition rate ([1]; 0.5 mg/kg at 2 h, 12 h and 22 h after modeling, percentage reduction in ulcer area compared to the Control group): 87.8% | result compared to the mixture group ([1]; 0.5 mg/kg versus mixture 50 mg/kg, in words): better results than the mixture in larger dose | anti-ulcer effects ([1]; 0.5 mg/kg, in words): excellent anti-ulcer effects | Ulcer index ([2]; 0.5 mg/kg twice daily for 3 days, 10 rats, ratio of ulcer area to gastric mucosal tissue area, Control group 40.5 ± 5.3): 5.5 ± 3.7% | Ulcer inhibition rate ([2]; 0.5 mg/kg twice daily for 3 days, percentage reduction in ulcer area compared to the Control group): 86.4% | anti-ulcer effects ([2]; P1, P2 0.5 mg/kg, mixture 50 mg/kg, in words): exhibit anti-ulcer effects | P versus Positive control group ([2]; anti-ulcer effects compared to omeprazole 2.6 mg/kg, P1, P2 0.5 mg/kg, mixture 50 mg/kg): > 0.05 | viability of normal human liver cells L-02 [3]: no effect | hepatotoxicity ([3]; L-02 cells): no hepatotoxicity | viability of normal human kidney cells HK-02 (HK-2) [4]: no effect | nephrotoxicity ([4]; HK-2 cells): no nephrotoxicity | Rat body weight ([5]; Day 1): 208 g and 215 g and 219 g and 218 g and 217 g (2×) and 214 g | Rat body weight ([5]; Day 2): 210 g and 216 g (2×) and 220 g and 221 g and 223 g and 218 g | Rat body weight ([5]; Day 3): 211 g and 220 g and 221 g and 222 g and 225 g and 210 g and 219 g | Rat body weight ([5]; Day 4): 213 g and 224 g | Rat body weight ([5]; Day 5): 214 g and 225 g (2×) and 229 g (2×) and 221 g and 226 g | Rat body weight ([5]; Day 6): 214 g and 226 g and 225 g and 231 g and 230 g and 224 g and 229 g | Rat body weight ([5]; Day 7): 215 g and 226 g and 230 g (2×) and 237 g and 232 g and 225 g | Rat body weight ([5]; Day 8): 216 g and 229 g (2×) and 233 g and 236 g and 234 g and 232 g | Rat body weight ([5]; Day 9): 221 g and 230 g and 235 g (2×) and 239 g and 234 g and 231 g | Rat body weight ([5]; Day 10): 224 g and 231 g and 238 g and 240 g and 239 g and 235 g and 237 g | Rat body weight ([5]; Day 11): 225 g and 234 g and 239 g and 242 g (2×) and 238 g and 240 g | Rat body weight ([5]; Day 12): 230 g and 235 g and 239 g and 244 g (2×) and 245 g and 240 g | Rat body weight ([5]; Day 13): 231 g and 238 g and 240 g and 245 g (2×) and 249 g and 241 g | Rat body weight ([5]; Day 14): 235 g and 239 g and 241 g and 248 g and 250 g and 244 g (2×) | Rat body weight ([5]; Day 15): 238 g and 241 g and 242 g and 250 g and 252 g and 245 g (2×) | effects on rat body weight ([5]; daily intragastric gavage for 14 days, in words): minimal effects | Alaninetransaminase Activity, Average (Rat liver; 500 mg/kg daily): 29.33 IU/L | Alaninetransaminase Activity (Rat liver; 500 mg/kg daily): 34 IU/L (2×) and 42 IU/L and 17 IU/L and 21 IU/L and 28 IU/L | Alaninetransaminase Activity, Average (Rat liver; 1000 mg/kg daily): 36.67 IU/L | Alaninetransaminase Activity (Rat liver; 1000 mg/kg daily): 29 IU/L and 43 IU/L and 45 IU/L and 33 IU/L and 32 IU/L and 38 IU/L | hepatotoxicity (Rat liver; [6]): without hepatotoxicity | Blood Urea Nitrogen Levels (Rat kidney; 500 mg/kg daily): 19 mg/dL and 37 mg/dL and 32 mg/dL and 34 mg/dL and 42 mg/dL and 33 mg/dL | Blood Urea Nitrogen Levels (Rat kidney; 1000 mg/kg daily): 23 mg/dL and 29 mg/dL and 35 mg/dL and 39 mg/dL and 43 mg/dL and 44 mg/dL | nephrotoxicity (Rat kidney; [6]): without hepatotoxicity and nephrotoxicity | mucosal repair effects (mucosal repair): found to have mucosal repair effects
